pIC50: −log10 of the molar value. Values after ≈ are worked out from the molar mass of the structure shown. Active and inactive are the calls of the source. The rule behind the calls is not given here.

Assay [1] relates to HeLa. Nature of the assay: Cytotoxic activity against human HeLa cells by Cell-titer blue assay. It counts as functional, cell-based.
In a further assay the test system is HUVEC. Description: Antiproliferative activity against HUVEC cells by Cell-titer blue assay. It counts as functional, cell-based. The settings on record: Homo sapiens.
The next assay concerns K562. Description: Antiproliferative activity against human K562 cells by Cell-titer blue assay. It counts as functional, cell-based.
Assay [2] concerns Mycobacterium tuberculosis. Description: Antitubercular activity against Mycobacterium tuberculosis H37Rv by MABA method. It counts as functional.
For assay [3], the system named is HeLa. Nature of the assay: Cytostatic activity against human HeLa cells at 1 to 50 uM by Cell-titer blue assay. It counts as functional, cell-based.

Turning to `O=C(OC/C=C\[C@H](Cl)[C@@](O)(CO)COC(=O)c1ccccc1)c1ccccc1` (relative stereo), the pIC50 in the assay with HeLa [1], in the assay on HUVEC and with K562 was less than 4.35 in each case. This compound displayed a minimal inhibitory concentration (MIC) in assay [2] of 38 µM (≈ 15.4 µg/mL).
With `CC(=O)OC/C(=C\[C@@H](Cl)[C@H](O)COC(=O)c1ccccc1)COC(=O)c1ccccc1`, the result with HeLa [3] was Active. In assay [2], the MIC came out at 26 µM (≈ 11.6 µg/mL).
On to `CC(=O)O[C@@H]1C(=O)C=COC=C1COC(=O)c1ccccc1`, for which the pIC50 with HeLa [1] was 4.59; with HUVEC, 5.00; in the assay on K562 it was 5.10. In addition, the lowest concentration to inhibit growth in assay [2] (MIC) was 25 µM (≈ 7.56 µg/mL).

(Values after ChEMBL document CHEMBL4130573, “Antitubercular and Cytotoxic Chlorinated seco-Cyclohexenes from Uvaria alba” (J Nat Prod, 2017).)
